# Biological target: mTOR (Homo sapiens, UniProt P42345)
# Test: LanthaScreen TR-FRET in vitro kinase assay, purified mTOR (PV4753), GFP-4E-BP1 substrate, […] ATP, […] MnCl2
# Assay type: biochemical
smiles,measurement,value
"O=c1c(O)c(-c2ccc(O)c(O)c2)oc2cc(O)cc(O)c12 [quercetin, 3,3′,4′,5,7-pentahydroxyflavone]",IC50,7.8 µM
